Data taken from patent US20120141440A1, “FOAMYVIRUS VECTORS AND METHODS OF USE” (priority 2009, published 2012).

Tested on: 293T cells
Experiment: Western blot of protein expressed from wild-type and human codon optimized foamyvirus gag, pol and env constructs
Assay type: cell-based
Settings: optimized vs wild-type sequence
Source text: To assessing the amount of protein that was present in virus producing cells upon transfection of the human codon usage-optimized cDNAs in comparison with the wild-type sequences, 293T packaging cells were transfected with equal amounts of the corresponding plasmids in sequential dilutions. DNA (pUC19) from a cloning vector was utilized to keep the absolute amount of DNA transfected into 293T cells the same. For FV gag and pol, the only difference between the two plasmids was the optimization of the FV gene for human codon usage. For the PFV env gene, the human optimized ORF in a vector with slice donor and acceptor sites was compared to the non-optimzed sequence expressed without splice sites in the same vector. Additionally, the expression of optimized simian FV (SFV) env contained on pUC19, like the above comparisons, was compared to a non-optimized SFV env contained on a pCL (Promega).

Substance: SFV-1 env: Homo sapiens optimized Env cDNA from Simian Foamy Virus (SFV-1) (SEQ. ID. No. 4)
- protein levels increased through optimization of the FV genes for human codon usage: increased
